Assay results from patent US7915005B2, “Methods for detecting sleepiness” (Washington University in St. Louis, priority 2005, dated 2011).
“Also recorded” adds a separate entry of the source. Where two headings read alike, the source gives them in different places.

Columns and labels:
[1] = tested on: wild-type flies; conditions: literature and unpublished data; cited from earlier work
[2] = tested on: wild-type flies; assay: Pharmacologically induced waking in flies (Trikinetics activity monitoring); format: in vivo, Drosophila melanogaster; conditions: drug dissolved in food
Experimental: (§1) Three day old female flies were placed in 65 mm glass tubes and sleep parameters were continuously evaluated throughout all experiments using the Trikinetics activity monitoring system as previously described (Shaw, P J et al., 2000. Science 287: 1834-1837; Shaw, P J et al., 2002. Nature 417: 287-291) (www.Trikinetics.com). […] Three independent replicates of 32 flies were conducted for each time point. Following SD, two thirds of the flies from each group were frozen and RNA was extracted from whole heads. The remaining one third of the flies were monitored for an additional 24 h to assay the size of the homeostatic response. Using this protocol, both gene expression and behavior can be evaluated in siblings that have been exposed to identical environments and experimental manipulations.
Pharmacological studies were conducted on female Canton-s flies. Three-day old Cs female flies were individually placed into 65 mm glass tubes in the Trikinetics activity monitoring system and evaluated for two days under LD. […] It could be determined, therefore, if the fly had ingested the drug not only by its behavior, but also by observing the dye in its abdomen. The following morning, after 14 h of drug treatment, two thirds of the flies from each group were frozen and RNA was extracted from whole heads and the amount of dye in the abdomen was evaluated. […]

[3] = tested on: Amy/Luc flies; assay: Bioluminescence recording in Amy/Luc flies (amylase promoter linked to firefly luciferase); format: in vivo, Drosophila melanogaster; conditions: caffeine 2.5 mg/ml from the morning after a full night's sleep, recorded 12 h, n=9
Experimental: Prior to luminescence recordings, sleep was evaluated for 2 days in female Amy/Luc flies as described above with the exception that they were maintained on 0.5% sucrose supplemented with 1 mM beetle luciferin (Promega, Madison Wis.). On day 3, flies were sleep deprived for 12 h (n=9) or served as untreated controls (n=9). Flies that were sleep deprived were removed from their 65 mm glass tubes and placed into Petri dishes with 200 μl of fresh 0.5% sucrose 1 mM beetle luciferin. Siblings that had not been sleep deprived were placed into Petri dishes with 2.5 mg/ml of caffeine added to the 0.5% sucrose 1 mM beetle luciferin. Bioluminescence was subsequently recorded in 1 min bins for 12 h under photomultiplier tubes (HC135-11MOD; Hamamatsu, Shizouka, Japan) as previously described (Abraham, U, et al., 2005. J Neurosci 25: 8620-8626). Amy/Luc flies that had never been exposed to luciferin were recorded for 12 h and served as a blank. Luminescence for SD and caffeine treated flies was subtracted from the blank and smoothed using a 3 h running average. Two independent replicates were conducted.
To determine whether amylase can provide an assessment of sleep drive in real-time, a Drosophila line in which the promoter for amylase was linked to the firefly luciferase (Amy/Luc) was evaluated (Hickey, D A, et al., 1994. Proc Natl Acad Sci USA 91: 11109-11112). […]

[4] = tested on: wild-type flies; assay: Homeostatic response (sleep recovered) in the 24 h after 14 h of drug-induced waking; format: in vivo, Drosophila melanogaster; conditions: for homeostatic response / compensation for sleep lost during drug-induced waking: 14 h on drug, 24 h recovery, caffeine 2.5 mg/ml, methamphetamine 1 mg/ml
Experimental: as §1
(§2) Pharmacological studies were conducted on female Canton-s flies. Three-day old Cs female flies were individually placed into 65 mm glass tubes in the Trikinetics activity monitoring system and evaluated for two days under LD. […] All groups had similar amounts of baseline sleep. In all cases, the drug was dissolved in food along with an inert dye. It could be determined, therefore, if the fly had ingested the drug not only by its behavior, but also by observing the dye in its abdomen. The following morning, after 14 h of drug treatment, two thirds of the flies from each group were frozen and RNA was extracted from whole heads and the amount of dye in the abdomen was evaluated. The remaining one third of the flies were monitored for an additional 24 h to assay the size of the homeostatic response.
Sustained periods of waking in the fly can be induce pharmacologically (Hendricks, J C et al., 2000. Neuron 25: 129-138; Shaw, P J et al., 2000. Science 287: 1834-1837). […] Therefore wild-type flies were exposed to either caffeine or methamphetamine for 14 h and evaluated the magnitude of the homeostatic response. As above, gene expression was evaluated using qPCR and one third of the flies were allowed to recover for 24 h after drug removal and regular food was restored. […]

[5] = tested on: Amylase mRNA (CG18640); assay: qPCR of Amylase (CG18640) mRNA from whole heads after drug-induced waking; format: in vivo, Drosophila melanogaster; conditions: wild-type fly heads, immediately after 14 h of drug-induced waking; caffeine 2.5 mg/mL, methamphetamine 1 mg/ml
Experimental: as §2
Total RNA was isolated from fly heads using Trizol (Invitrogen, Carlsbad, Calif.) following the manufacturers protocol. […] Values were expressed as a percentage of untreated animals and were evaluated using a one-way ANOVA.
Sustained periods of waking in the fly can be induce pharmacologically (Hendricks, J C et al., 2000. Neuron 25: 129-138; Shaw, P J et al., 2000. Science 287: 1834-1837). […] Therefore wild-type flies were exposed to either caffeine or methamphetamine for 14 h and evaluated the magnitude of the homeostatic response. […]

[6] = tested on: amylase activity; assay: Amylase activity in fly homogenates after paraquat stress (Infinity Amylase reagent); format: in vivo, Drosophila melanogaster; conditions: Cs female flies, 20 μM paraquat in 1% agar 5% sucrose for 16 h
Experimental: Amylase activity was evaluated following 28 h of sleep deprivation in Cs flies to match the duration of waking used in the human experiments. Female Cs flies were sleep deprived for 28 h beginning at lights out (8 pm). Whole body homogenates were extracted from 4 groups of 5 flies and compared to untreated circadian-matched controls; experiments were conducted in duplicate. Amylase activity was determined using the Infinity Amylase reagent (TR25421; Thermo Electron Corp, Louisville, Co., USA) according to the manufacturer's instructions. All samples were assayed in quadruplicate. To evaluate the effects of stress on amylase activity, Cs females were placed onto 20 μM paraquat dissolved in 1% agar 5% sucrose for 16 h and sacrificed at the same circadian time as the 28 h SD flies and their controls.

[7] = tested on: flies; conditions: 20 μM paraquat, exposures longer than 16 h; Shaw et al. 2002; cited from earlier work

Compound | waking produced by the drug [1] | waking produced by the drug [2] | homeostatic response / compensation for sleep lost during drug-induced waking [4] | Amylase (CG18640) mRNA expression vs. untreated controls [5] | other results
CC(N)Cc1ccccc1 (stereo not shown) [amphetamine] | produce waking |  |  |  | 
Cn1c(=O)c2c(ncn2C)n(C)c1=O [caffeine] |  | produce sustained periods of waking | exhibit a rebound of similar magnitude as that seen following manual SD | strongly activated; also recorded: exhibit significant increases in Amylase mRNA; also recorded: elevated | bioluminescence (counts/min) in Amy/Luc flies [3]: increased as the animals spent more time on caffeine; also recorded: progressive increase in bioluminescence; lost sleep recovered ([4]; 14 h of caffeine-induced waking, FIG. 5A): 30-50%
CN[C@@H](C)Cc1ccccc1 [methamphetamine] |  | produce sustained periods of waking | do not compensate for the lost sleep; also recorded: do not induce a homeostatic response | not activated; also recorded: do not induce Amylase mRNA; also recorded: not after waking induced by methamphetamine | 
COC(=O)C(c1ccccc1)C1CCCCN1 (stereo not shown) [methylphenidate] | produce waking |  |  |  | 
NC(=O)C[S+]([O-])C(c1ccccc1)c1ccccc1 (stereo not shown) [modafinil] | produce waking |  |  |  | 
C[n+]1ccc(-c2cc[n+](C)cc2)cc1 [paraquat] |  |  |  |  | amylase activity [6]: did not alter Amylase activity; lethality on paraquat [7]: flies begin to die during longer exposures
